In brackets after ≈: the same amount, converted by molar mass.
Key:
[1] = Equilibrium surface tension by maximum-bubble-pressure method; format: physicochemical; details: for Equilibrium Surface Tension: 0.1 wt %, 23° C., 1 bubble/second, Table 2; for EST, trans olefin: 0.05 wt. %, Table 4; for EST of 0.1 wt % solution: cis and trans isomers, Table 7; for EST at Solubility Limit: trans isomers, Table 8
Method: The equilibrium surface tension is measured using the maximum-bubble-pressure method at 23° C. and 1 bubble/second. This method is described in Langmuir, Vol. 2 (1986), pp. 428-432. When measured at the solubility limit of the surfactant, an equilibrium surface tension of 40 dynes/cm or less is desired; preferably 35 dynes/cm or less.
The equilibrium surface tension was measured using the maximum-bubble-pressure method at 23° C. and 1 bubble/second at 0.1 wt %. The results, presented in Table 2, indicate that olefinic diols with 10 or less carbons are poor surfactants and the cis isomer has slightly better equilibrium surface tension than the trans isomer.
The equilibrium surface tension of the compounds of Examples 3, 4 and 5 was measured 0.05 wt. %.

[2] = Water solubility (solubility limit); format: physicochemical; details: for solubility: water

Row | solubility ([2]; cis and trans isomers, Table 7) [µg/mL] | EST of 0.1 wt % solution [1] [dynes/cm] | also measured | Structure (SMILES)
1 | – | – | Equilibrium Surface Tension [1]: 51 dynes/cm | CCC(C)(O)/C=C\C(C)(O)CC (stereo not drawn) [Example 2 cis]
2 | – | – | Equilibrium Surface Tension [1]: 59 dynes/cm | CCC(C)(O)/C=C/C(C)(O)CC (stereo not drawn) [Example 2 trans]
3 | – | – | EST, trans olefin [1]: 67 DYNES/CM | CCCCCCC(C)(O)/C=C/C(C)(O)CCCCCC (centres unmarked) [Example 3]
4 | – | – | EST, trans olefin [1]: 67 DYNES/CM | CC(O)(/C=C/C(C)(O)c1ccccc1)c1ccccc1 (centres unmarked) [Example 4]
5 | – | – | EST, trans olefin [1]: 69 DYNES/CM | CCCCC(O)(/C=C/C(O)(CCCC)CCCC)CCCC [Example 5]
6 | 100 (≈ 499 µM) | 54 | – | CCC(O)(/C=C\C(O)(CC)CC)CC [Example 6 cis, 3,6-diethyl-4-octene-3,6-diol]
7 | 5000 (≈ 25000 µM) | 50 | – | CCC(O)(/C=C/C(O)(CC)CC)CC [Example 6 trans, 3,6-diethyl-4-octene-3,6-diol]
8 | < 100 | 58 | – | CC(C)CC(C)(O)/C=C\C(C)(O)CC(C)C (stereo not drawn) [Example 7 cis, 2,4,7,9-tetramethyl-5-decene-4,7-diol]
9 | 2000 (≈ 8760 µM) | 34 | Solubility Limit ([2]; trans isomers, Table 8): 0.2 wt % in water; EST at Solubility Limit [1]: 29 dynes/cm | CC(C)CC(C)(O)/C=C/C(C)(O)CC(C)C (stereo not drawn) [Example 7 trans, 2,4,7,9-tetramethyl-5-decene-4,7-diol]
10 | < 100 | 68 | – | CC(C)CCC(C)(O)/C=C\C(C)(O)CCC(C)C (stereo not drawn) [Example 8 cis, 2,5,8,11-tetramethyl-6-dodecene-5,8-diol]
11 | 300 (≈ 1170 µM) | 33 | Solubility Limit ([2]; trans isomers, Table 8): 0.03 wt % in water; EST at Solubility Limit [1]: 33 dynes/cm | CC(C)CCC(C)(O)/C=C/C(C)(O)CCC(C)C (stereo not drawn) [Example 8 trans, 2,5,8,11-tetramethyl-6-dodecene-5,8-diol]
12 | – | – | solubility ([2]; trans isomers, Table 8): 1000 µg/mL (≈ 4380 µM); EST at Solubility Limit [1]: 33 dynes/cm | CCCCC(C)(O)/C=C/C(C)(O)CCCC (centres unmarked) [Example 9, 5,8-dimethyl-6-dodecene-5,8-diol]

Source: US6075060A, “Trans olefinic diols with surfactant properties” (Air Products and Chemicals, Inc., priority 1998, dated 2000)
